# According to article PMC7071032, “In Vitro Inhibition of Hsp90 Protein by Benzothiazoloquinazolinequinones Is Enhanced in The Presence of Ascorbate. A Preliminary In Vivo Antiproliferative Study” (Molecules, 2020):
# Values joined by “and” are separate entries in the source; they are usually repeats but may differ in a detail not shown here. Equal entries are not always repeated.
# Columns and labels:
# DU-145 (prostate) cells = system: DU-145 (prostate) cells; design: method as in doi:10.1016/j.tetlet.2015.07.034; conditions: read-out: IC50 ± SEM DU-145, MTT, data from Valderrama et al. ref 16; cited from earlier work
# PARP = experiment: Immunoblot of PARP protein integrity in TLT cells; assay type: cell-based, murine; conditions: 5 µM plus 1 mM ascorbate, 4 h
# Experimental: Cancer cells were incubated for 4 h with 5 µM menadione (K3) or 15 either in the absence or in the presence of 1 mM ascorbate (Asc). Ctl represents control untreated cells. * p < 0.05 as compared to control conditions. Cancer cells were incubated for 4 h in the absence and in the presence of compounds. Afterward, cells were washed twice with ice-cold PBS and then resuspended in RIPA lysis buffer supplemented with 1% protease inhibitor cocktail (Sigma–Aldrich, St. Louis, MO, USA) and 3% phosphatase inhibitor cocktail (Calbiochem, Darmstadt, Germany). Treatment of samples and electrophoresis conditions were conducted as previously reported. Mouse monoclonal primary antibodies against hsp90α/β C-terminus (F8), and against β-actin (clone AC-15), were purchased from Santa Cruz Biotechnology (Santa Cruz, CA, USA) and from Abcam (Cambridge, UK), respectively. Rabbit polyclonal antibodies against PARP were purchased from BD Biosciences (San Diego, CA, USA). Goat anti-rabbit antibody and rabbit anti-mouse polyclonal antibody were purchased respectively from Chemicon International (Temecula, CA, USA) and DakoCytomation (Glostrup, Denmark).
# T24 cells = experiment: Clonogenic assay; assay type: cell-based, human; conditions: for cell growth compared to control conditions (100%), in brackets / number of colony forming units (CFUs): T24 cells; for number of colony forming units (CFUs): 24 h treatment, 10 days growth
# Experimental: Indeed, at a dose of 0.25 µM, it decreased from 195 to 72 the number of CFUs. Otherwise, it inhibits the proliferation of T24 cells by 63% as compared to the control untreated cells. […] The percentages of the observed cell growth compared to control conditions (100%) are indicated in brackets. […] Cells were allowed to adhere overnight, and then treated with quinones for 24 h. Afterward, they were washed with warm PBS, given fresh medium, and allowed to grow for 10 days. Clonogenic survival was determined by fixing and staining colonies using crystal violet and further counting their number. The number of colonies calculated under control conditions was set as 100%.
# [1] = system: poly(ADPribose)polymerase (PARP); experiment: Immunoblot of PARP protein integrity in T24 cells; assay type: cell-based, human; conditions: 5 µM, 4 h, regardless of the presence of ascorbate (1 mM)
# Experimental: Figure 1 Effects of selected quinones of Hsp90 (A) and poly(ADPribose)polymerase (PARP) (B) protein integrity in T24 cells. […] Ctl represents control untreated cells. * p < 0.05 as compared to control conditions. […] This was the case regardless of the presence of ascorbate (1 mM). The obtained results make a potential role of apoptosis unlikely to be the underlying mechanism of cell impairment induced by quinones, including menadione. Indeed, PARP is a substrate of caspase-3, therefore, when an apoptosis process is triggered, it is expected that PARP protein will be cleaved yielding a second protein band also recognized by the anti-PARP antibody. Cancer cells were incubated for 4 h in the absence and in the presence of compounds. Afterward, cells were washed twice with ice-cold PBS and then resuspended in RIPA lysis buffer supplemented with 1% protease inhibitor cocktail (Sigma–Aldrich, St. Louis, MO, USA) and 3% phosphatase inhibitor cocktail (Calbiochem, Darmstadt, Germany). Treatment of samples and electrophoresis conditions were conducted as previously reported. Mouse monoclonal primary antibodies against hsp90α/β C-terminus (F8), and against β-actin (clone AC-15), were purchased from Santa Cruz Biotechnology (Santa Cruz, CA, USA) and from Abcam (Cambridge, UK), respectively. Rabbit polyclonal antibodies against PARP were purchased from BD Biosciences (San Diego, CA, USA). […]
# [2] = system: non-tumor fibroblasts AG 1523; experiment: MTT reduction assay, non-tumor fibroblasts; assay type: cell-based; conditions: Homo sapiens, AG1523, 48 h incubation, read-out: IC50 ± SEM AG 1523
# Experimental: As positive control, two well-known anticancer drugs, namely TAM and 5-FU, were also tested on these cell lines. […] Regarding 5-FU, it is a broad-spectrum chemotherapeutic drug used to treat a variety of malignancies. Particularly, it has a long history of use against bladder tumors.
# Cell culture conditions were the same as reported elsewhere. Briefly, cell lines were kept in DMEM containing 10% fetal calf serum. In addition, 100 U/mL of penicillin and 100 µg/mL streptomycin from Gibco (Grand Island, NY, USA) were further added. Cell cultures were kept at 37 °C under an atmosphere of 95% air/5% CO2 and 100% humidity. Sodium L-ascorbate, menadione (vitamin K3), TAM, and 5-FU were purchased from Sigma (St. Louis, MO, USA).
# The cytotoxicity of the quinones was assessed by following the reduction of MTT (3-(4,5-dimethylthiazol-2-yl)-2,5-diphenyltetrazolium bromide) to formazan blue and the capability of cancer cells to proliferate, namely a clonogenic assay.
# Cells were seeded into 96-well plates at a density of 10,000 cells/well for 24 h and then incubated for 48 h with or without the quinone derivatives. […] The IC50 values were determined using the GraphPad Prism software (San Diego, CA, USA). Further incubation procedures and optical density reading of colored solutions were performed according to Benites et al..
# MCF-7 (breast) cells = system: MCF-7 (breast) cells; design: method as in doi:10.1016/j.tetlet.2015.07.034; conditions: MTT, data from Valderrama et al. ref 16, read-out: IC50 ± SEM MCF-7; cited from earlier work
structure (smiles),measurement,setting,value
Cc1ccc2c(c1)SC1=NC3=C(C(=O)c4ccccc4C3=O)C(C)(O)N12 (stereo not drawn) [Compound 15],IC50,DU-145 (prostate) cells,110 ± 30 nM
same,PARP degradation,PARP,not PARP degradation
same,inhibition at 0.25 µM,"T24 cells; Homo sapiens, T-24, clonogenic assay, 0.25 µM, read-out: inhibition of the proliferation of T24 cells as compared to control untreated cells",63%
same,"cell growth compared to control conditions (100%), in brackets",T24 cells; 0.025 µM,92%
same,number of colony forming units (CFUs),T24 cells; 0.025 µM,180 ± 11 CFUs
same,"cell growth compared to control conditions (100%), in brackets",T24 cells; 0.125 µM,83%
same,number of colony forming units (CFUs),T24 cells; 0.125 µM,162 ± 18 CFUs
same,"cell growth compared to control conditions (100%), in brackets",T24 cells; 0.25 µM,37%
same,number of colony forming units (CFUs),T24 cells; 0.25 µM,72 CFUs and 72 ± 5 CFUs
same,"cell growth compared to control conditions (100%), in brackets",T24 cells; 1.25 µM,11%
same,number of colony forming units (CFUs),T24 cells; 1.25 µM,22 ± 9 CFUs
same,"cell growth compared to control conditions (100%), in brackets",T24 cells; 2.5 µM,8%
same,number of colony forming units (CFUs),T24 cells; 2.5 µM,16 ± 3 CFUs
same,"cell growth compared to control conditions (100%), in brackets",T24 cells; 5.0 µM,1%
same,number of colony forming units (CFUs),T24 cells; 5.0 µM,2 ± 1 CFUs
same,PARP cleavage,[1],no effect on PARP protein integrity
same,IC50,[2],32.3 ± 3.31 µM
same,IC50,MCF-7 (breast) cells,2980 ± 520 nM
